Measurements taken from patent publication US8394854B2, “Use of L-carnitine for the treatment of cardiovascular diseases” (Sigma-Tau Industrie Farmaceutiche Riunite S.p.A., priority 2004, dated 2013).

Tests used:
[1] = tested on: patients with acute myocardial infarction; assay: Multicentre randomized, double-blind, placebo-controlled, parallel-group clinical trial of L-carnitine; assay type: in vivo, human; conditions: for RR (Relative Risk) of death at 1 mo. / RR (Relative Risk) of death at 2 mos. / RR (Relative Risk) of death at 6 mos. / RR (Relative Risk) of death at 12 mos. / RR (Relative Risk) of death at 3 days / RR (Relative Risk) of death at 5 days / RR (Relative Risk) of death at 7 days: vs placebo
Experimental: A clinical trial was conducted aimed at evaluating the effect of the administration of L-carnitine on short-, medium- and long-term incidence and mortality in patients with acute myocardial infarction. The trial design was that of a multicentre randomized, double-blind, placebo-controlled, parallel-group trial.
A total of 2,296 patients of male and female sex were recruited, aged below 80 years, subdivided into groups. The study compound, L-carnitine, was administered at a dose of 9 g/day i.v. for the first 5 days and 4 g/day by mouth from day 6 to day 180.
In particular, in one group of patients the L-carnitine was administered intravenously dissolved in sterile saline solution, while in another group of patients it was administered dissolved in normal 5% glucose solution used in hospital departments.
The control group received the standard therapy used for the treatment of infarct, without L-carnitine.
Concomitant therapies were administered according to the procedures adopted in local clinical practice.
The efficacy parameters evaluated were reduction of mortality, reduction of the number of days spent in intensive care, and reduction of the number of episodes of post-infarction heart failure.
• Typical chest pain lasting >30 minutes which is not relieved by oral or i.v. administration of nitrates; • ECG with ST-segment elevation 0.2 mV in D, and in lead aVL and/or in at least two contiguous precordial leads; • Time interval elapsing between onset of symptoms and study randomisation <12 hours; • Age <80 years; • Written informed consent. Exclusion Criteria • Pregnancy or breast-feeding; • Haemodynamically significant valvulopathy; • Hypertrophic or dilatory cardiomyopathy; • Congenital cardiopathy; • Clinically severe liver and kidney disease; • Alcohol abuse; • Other diseases associated with a poor life expectancy; • Conditions making poor compliance with treatment and/or periodic examinations likely; • Inclusion in another trial.

[2] = tested on: experimental cardiac ischaemia model; conditions: dogs; cited from earlier work
[3] = tested on: patients with acute myocardial infarction; conditions: 3 grams every 8 hours (9 grams a day) intravenously for 48 hours; control saline solution; cited from earlier work
[4] = tested on: patients presenting infarction symptoms; conditions: 2 g/day; 6 in the control group; cited from earlier work
infarction patients [5] = conditions: two deaths also in the placebo group; cited from earlier work
[6] = tested on: patients with signs of infarction; conditions: 40 mg/kg/day (2.8 g/day), cited from earlier work
infarction patients [7] = conditions: L-carnitine administered within 24 hours of the infarction; 14 in the control group; cited from earlier work
[8] = all patients, L-carnitine in saline or glucose solution
[9] = group treated with L-carnitine dissolved in glucose solution
[10] = L-carnitine dissolved in glucose solution
[11] = all patients, saline or glucose solution

C[N+](C)(C)C[C@H](O)CC(=O)[O-] [L-carnitine]
NUMBER OF DEATHS AT: 1 mo. [1, 8]: 45
NUMBER OF DEATHS AT: 1 mo. [1, 9]: 22
RR (Relative Risk) of death at 1 mo. [1, 10]: 0.79
RR (Relative Risk) of death at 1 mo. [1, 11]: 0.78
NUMBER OF DEATHS AT: 2 mos. [1, 8]: 53
NUMBER OF DEATHS AT: 2 mos. [1, 9]: 26
RR (Relative Risk) of death at 2 mos. [1, 10]: 0.80
RR (Relative Risk) of death at 2 mos. [1, 11]: 0.81
NUMBER OF DEATHS AT: 6 mos. [1, 8]: 64
NUMBER OF DEATHS AT: 6 mos. [1, 9]: 32
RR (Relative Risk) of death at 6 mos. [1, 10]: 0.87
RR (Relative Risk) of death at 6 mos. [1, 11]: 0.86
NUMBER OF DEATHS AT: 12 mos. [1, 8]: 67
NUMBER OF DEATHS AT: 12 mos. [1, 9]: 33
RR (Relative Risk) of death at 12 mos. [1, 10]: 0.88
RR (Relative Risk) of death at 12 mos. [1, 11]: 0.89
NUMBER OF DEATHS AT: 3 days ([1]; all patients, L-carnitine in saline or glucose solution, 9 g/day i.v. 5 days then 4 g/day oral): 23
NUMBER OF DEATHS AT: 3 days [1, 9]: 11
RR (Relative Risk) of death at 3 days [1, 10]: 0.67
RR (Relative Risk) of death at 3 days [1, 11]: 0.68
NUMBER OF DEATHS AT: 5 days [1, 8]: 27
NUMBER OF DEATHS AT: 5 days [1, 9]: 13
RR (Relative Risk) of death at 5 days [1, 10]: 0.64
RR (Relative Risk) of death at 5 days [1, 11]: 0.63
NUMBER OF DEATHS AT: 7 days [1, 8]: 31
NUMBER OF DEATHS AT: 7 days [1, 9]: 15
RR (Relative Risk) of death at 7 days [1, 10]: 0.70
RR (Relative Risk) of death at 7 days [1, 11]: 0.69
enhancing cardiac lipid metabolism [2]: active
mortality at 7 days after the start of treatment, control group vs treated group [3]: no significant difference
number of deaths at 28 days after the start of treatment [4]: 4
deaths in the group treated with L-carnitine (infarction patients [5]): two
difference between patients treated within 4 hours of onset of symptoms of infarction and patients treated 4 hours after onset [6]: no statistically significant difference
number of deaths in the treated group ([6]; one in the control group): none
patients in the treated group who died over the entire hospitalisation period (infarction patients [7]): 11
